Reference: US20240270771A1, “Compound containing phosphate group, pharmaceutical composition containing same, preparation method therefor and use thereof” (SHANGHAI RAISING PHARMACEUTICAL CO., LTD., priority 2021, published 2024)

Tests used:
APP/PSi 2×Tg mice = test: Water maze behavior test; assay type: in vivo; settings: 200 mg/kg oral gavage once a day, 8 weeks; for The number of crossing the platform: test day 6, model group 0.9 ± 0.6; for Time in the target quadrant: test day 6, model group 12.8 ± 2.9, in s
Source text: Rodents in water have a strong incentive to escape from the water environment, and can escape from the water environment in the fastest and most direct way. The process of learning to escape from the water environment reflects the learning ability of the animals. Spatial positioning according to the surrounding environment and purposefully swimming to a safe place in the water (such as a platform) can reflect the spatial learning and memory ability of the animals.
The test animals were APP/PSi 2×Tg mice (C57BL/6 wild-type mice as the blank control). Mice of 6-8 months old, weighing 20-40 g, were purchased from The Jackson laboratory.
APP/PSi mice are APP/PSi di-transgenic Alzheimer's disease (2×Tg-AD) model mice, and the appearance of deposition of Aβ is earlier than the pathological changes of tau protein for several months, which can more truly simulate the clinical process and pathological changes of Alzheimer's disease.
Preparation of 0.7% CMC-Na: 0.7 g CMC-Na was added with a proper amount of water, heated for dissolution, left for cooling to room temperature, diluted to 100 mL, and stored at 4° C.
Preparation of BTMP: 100 mg of BTMP was added to 10 mL of 0.7% CMC-Na to prepare a 10 mg/mL suspension for use.
Preparation of test compound and comparative compound 1: 100 mg of the compound to be tested was weighted and added to 10 mL of 0.7% CMC-Na to prepare a 10 mg/mL suspension for use.
The laboratory mice were randomly divided into groups (9 or 10 mice per group). Mice in each group were administrated at a dosage of 0.2 mL/10 g body weight by oral gavage once a day for eight weeks.
The mice in the blank control group, model group and test group were orally administrated for 8 consecutive weeks according to the above administration dosage/specification. The water maze training and test were started in the last week of administration. The water maze training and test lasted for six days, with a training period of five days and a testing period of one day. In addition, during the training and testing period of water maze (6 days in total), the indoor conditions such as lighting etc. were kept consistent, the room was kept quiet, and the interference from the environment and personnel was excluded.
2.1. Preparation before the test: a proper amount of water was put into the water maze pool with the water temperature being kept at 22±3° C. The platform was placed in a fixed position (target quadrant) and 1 cm below the water surface, and titanium dioxide was added until the water became white, so that the platform could not be seen clearly.
2.2. Training period (days 1 to 5): on each day, before the first quadrant training, each mouse was placed on the platform for 15 s (to increase the mice's sense of security on the platform), and then the mouse was put into the pool (with its head facing the pool wall) from the quadrant where the platform located, and the swimming time was set as 60 s. If the mouse found the platform within 60 s and stayed for 5 s, it was regarded as the platform being found successfully. If the mouse could not find the platform, then the time was recorded as 60 s. The mouse was guided to the platform and stayed for 20 s, the mouse was then taken out, and the quadrant training for this mouse was ended.
After the first quadrant training, the mouse was trained in the remaining three quadrants sequentially, where it is not necessary to place the mouse on the platform for 15 s before training. The training of each mouse in every two quadrants was conducted at an interval of 10-15 minute. In this way, the training was performed continuously for 5 days.
2.3. Testing period (day 6): 24 hours after the last training, the platform was removed, and the mouse was dropped at the position opposite to the quadrant where the platform previously located (i.e., the position furthest away from the platform). […]

[1] = test system: memory reproduction disorder model induce by ethanol; test: Dark avoidance test, memory reproduction disorder model induced by ethanol; assay type: in vivo, ICR mice; settings: 45% ethanol 0.1 mL/10 g gavage, compound 200 mg/kg gavage once a day 3 weeks; for Number of errors: model group 2.4 ± 1.7; for Latency period: model group 118.4 ± 106.9
Protocol: The mice employed in the present test were purchased from Xipuer-BIKAI Laboratory Animal Co., Ltd., and they were SPF grade ICR mice, 3-4 weeks old, weighing 16-18 g.
Anhydrous ethanol: Shanghai Titan Technology Co., Ltd.; Product No.: G73537B; Purity: >99.7%.
Test article preparation: 100 mg of the compound to be tested was weighed and added to 10 mL of 0.7% CMC-Na to prepare a 10 mg/mL suspension for use.
The laboratory mice were randomly divided into groups (9 or 10 mice per group). The mice in each group were administrated at a dosage of 0.2 mL/10 g body weight by oral gavage once a day for three weeks.
The laboratory mice animals were administered by gavage for three weeks. One hour after the last administration, they were trained with the YLS-17B dark avoidance tester. The test was performed 24 h later. A 45% ethanol solution (0.1 mL/10 g) was administered by oral gavage 30 min before the test. The latency period (the time from the start of counting to the first time of entering the dark compartment) and the number of errors (number of electric shocks) of the animals were recorded.
The activity box of the dark avoidance automatic tester comprises two compartments (bright and dark), there is a hole between the two compartments, the bottom of the box is covered by a copper grid, and the animals normally go into the dark compartment. Before the formal test, the laboratory mice were trained by placing the animals in the bright compartment with their backs facing the entrance of the hole, to get familiar with the environment for 5 min, and then the copper grid in the dark compartment was electrified for stimulation at a voltage of 50 V and a current of 1.00 mA (which can be adjusted according to the actual situation). When the animals received electric shock, they entered the bright compartment, or went back and forth between the two compartments. The current was continuously applied for 5 min, which served as the training process.
Testing: the mice modeled with ethanol were put into the bright box one by one with their backs facing the entrance of the hole, and the time interval between putting each animal was 5 s. After the first animal was put into the bright compartment, the electricity was applied immediately. The electricity was applied for 6 min. At the end of applying electricity, data were printed, and the latency period (the time from the start of counting to the first time of entering the dark compartment) and the number of errors (the number of electric shock during the testing period) were recorded. Due to the different time of putting the animal in, the time difference can be subtracted according to the actual time of putting the animal.
Statistical analysis: all data were expressed as the mean value±standard deviation, and SPSS software was used for analysis.

[2] = test day 6, model group 45.0 ± 8.8

C/C(=C(\CCOP(=O)(O)O)SC(=O)c1ccco1)N(C=O)Cc1cnc(C)nc1N [Compound 9, (Z)—S-(2-(N-((4-amino-2-methylpyrimidin-5-yl)methyl)formamido)-5-(phosphonooxy)pent-2-en-3-yl) furan-2-carbothioate]
The number of crossing the platform (APP/PSi 2×Tg mice): 2.3 ± 0.5 | Time in the target quadrant (APP/PSi 2×Tg mice): 18.6 ± 1.6 | Latency period (APP/PSi 2×Tg mice; [2]): 22.8 ± 1.3 s | Number of errors [1]: 1.0 ± 1.0 | Latency period [1]: 216.1 ± 76.8 s

CCC(CC)C(=O)S/C(CCOP(=O)(O)O)=C(/C)N(C=O)Cc1cnc(C)nc1N [Compound 2, (Z)—S-(2-(N-((4-amino-2-methylpyrimidin-5-yl)methyl)formamido)-5-(phosphonooxy)pent-2-en-3-yl) 2-ethylbutanethioate]
The number of crossing the platform (APP/PSi 2×Tg mice): 2.2 ± 0.6 | Time in the target quadrant (APP/PSi 2×Tg mice): 18.8 ± 2.6 | Latency period (APP/PSi 2×Tg mice; [2]): 22.7 ± 1.1 s | Number of errors [1]: 1.2 ± 1.3 | Latency period [1]: 217.4 ± 96.6 s

CCCC(CCC)C(=O)S/C(CCOP(=O)(O)O)=C(/C)N(C=O)Cc1cnc(C)nc1N [Compound 1, (Z)—S-(2-(N-((4-amino-2-methylpyrimidin-5-yl)methyl)formamido)-5-(phosphonooxy)pent-2-en-3-yl) 2-propylpentanethioate]
The number of crossing the platform (APP/PSi 2×Tg mice): 2.4 ± 0.8 | Time in the target quadrant (APP/PSi 2×Tg mice): 19.6 ± 3.4 | Latency period (APP/PSi 2×Tg mice; test day 6, model group 45.0 ± 8.8, 200 mg/kg): 22.0 ± 1.5 s | Latency period (APP/PSi 2×Tg mice; test day 6, model group 45.0 ± 8.8, listed as compound 1, 200 mg/kg): 22.0 ± 1.5 s | Number of errors [1]: 1.0 ± 1.25 | Latency period [1]: 229.8 ± 90.0 s
